Reference: patent US20190313680A1, “MODIFYING OR ENHANCING A FLAVOR OF FOOD AND BEVERAGE PRODUCTS” (Tate & Lyle Ingredients Americas LLC, priority 2016, published 2019)

Legend:
panellists [1] = assay: Determination of the sweet-taste threshold of allulose: two-alternative forced choice test (2-AFC) against 1.5% by weight sucrose solution; type: in vivo
Excerpt: Described herein is a method for determining the sweetness threshold of allulose. The method is a two-alternative forced choice test against threshold levels of sweetness (ASTM Designation E2164-08: Standard Test Method for Directional Difference Test). This test is used to determine the amount of allulose at which its sweetness is less than that of the recognition threshold concentration of sucrose. The recognition threshold concentration of sucrose is 1.5% by weight in accordance with FEMA (Flavor Extracts Manufacturing Association) GRAS™ guidance.
The sweet-taste threshold of allulose was determined in accordance with FEMA (Flavor Extracts Manufacturing Association) guidance. The standard process described in this guidance requires use of a two-alternative forced choice test (2-AFC testing) against threshold levels of sweetness. FEMA guidance states that the standard for this determination is a 1.5% by weight sucrose aqueous solution (i.e. the sucrose is present in an amount of 1.5% by weight relative to the total weight of the solution). AFC tests are to be performed up to the concentration where the proposed substance exceeds the sweetness levels of sucrose at threshold levels. FEMA guidance further recommends that 30 observations be made to assess the difference in sweetness and that the differences must be found to be statistically significant to assess the effect.
The number of panellists used across replicates always exceeded the minimum of 30 observations as recommended by the FEMA sensory testing guidance. As replicates were performed, beta-binomial statistics were required to be consistent with published requirements (BI, Jian. 2006. Sensory Discrimination tests and Measurements. Chapter. 6, p. 106-129, 1st ed. Blackwell Publishing, Ames, Iowa). In such tests, when the beta-binomial term A exceeds zero, the beta-binomial is required. However, if A is zero or negative, then the panel is not over-dispersed and traditional binomial statistics can be used.
Samples were prepared on the morning of testing. Reference solutions were made as a point of comparison for all tests. The reference solutions were simple solutions of 1.5% by weight sucrose (commercial Domino brand sugar) in water. Test solutions were made from Tate & Lyle Dolcia Prima® allulose syrup standardized such that the amount of allulose in the test solutions was 1.925%, 2.310%, 2.695%, 2.8875%, or 3.080% by weight relative to the total weight of the solution.
Replicated pairs of samples at a single test concentration were chosen from those above and served on a given day. Panellists were presented products in coded 2-oz soufflé cups containing approximately 1.5 oz of liquid, and asked which sample was sweeter. Products were served at room temperature. The serving order was randomized based on a complete block design, such that the order of samples was randomized among panellists and between replicates.

panelists = assay: 2-AFC flavor and preference test, cotton candy flavored water (Example 1); type: in vivo; conditions: allulose in an amount below its sweetness threshold in cotton candy flavored beverage
Method: Cotton candy flavor samples in accordance with Table 2 below were prepared by weighing all of the ingredients into a container and blending until fully mixed.
(§1) The N&A Cotton Candy flavor was obtained from Givaudan (product code YX-953-327-3). […] DOLCIA PRIMA® was obtained from Tate & Lyle. The DOLCIA PRIMA® Allulose Syrup comprises allulose in an amount of 71% by weight on a dry solids basis. Accordingly, in the Test Sample, allulose was present at an amount of approximately 1.5% by weight relative to the total weight of the solution. The deionized water was produced by reverse osmosis.
The samples in Table 2 were subjected to 2-AFC testing. As already described herein, an AFC test is an alternative forced choice test. It asks a panelist to identify the sample that is most or least intense in a specified attribute among a given number of samples. A 2-AFC test chooses among 2 samples, a 3-AFC test chooses among 3 samples, etc. The attributes that are specified are generally attributes which panelists are likely to be able to recognize and identify a difference. A 2-AFC for sweetness would present panelists with two samples and ask them of the two which is sweeter. These differ from triangle tests or other types of tests in that an attribute is specified for the panelist to focus on. […]

panellists [2] = assay: 2-AFC flavor and preference test, salted caramel flavored water (Example 2); type: in vivo; conditions: allulose in an amount below its sweetness threshold in salted caramel flavored beverage
Method: Salted caramel flavor samples in accordance with Table 4 below were prepared by weighing all of the ingredients into a container and blending until fully mixed.
as §1, with “Salted Caramel” for “Cotton Candy”, “Flavor & Fragrance Specialities” for “Givaudan”, “YX-226E 032).” for “YX-953-327-3).”
The samples in Table 3 were subjected to 2-AFC testing.
Samples were prepared on the morning of testing. […] Standard ambient fluorescent lighting was used in sensory isolation booths, as is typical in sensory facilities. Products were served blinded and randomized in 2-oz soufflé cups identified with randomized three digit product codes.
The response questionnaires were run using Compusense Cloud. Replicates were not performed for this study. Therefore, simple binomial statistics were applied.

[3] = in accordance with FEMA GRAS guidance; cited from earlier work

## O=C(CO)C(O)C(O)C(O)CO (stereo not shown) [allulose]
Panellists [1]; 2.8875% by weight of allulose vs 1.5% by weight sucrose
  Sweetness compared with sucrose solution (in words): considered to be sweeter than the 1.5% by weight sucrose solution
Panellists [1]; 3.0800% allulose solids
  Sweetness relative to sweetness threshold (in words): clearly above the sweetness threshold
Panellists [1]; allulose 1.9250 weight % in water vs 1.5% by weight sucrose, 50 possible
  Count: number of panellists who selected the sucrose solution as sweeter: 45
Panellists [1]; allulose 2.3100 weight % in water vs 1.5% by weight sucrose, 58 possible
  Count: number of panellists who selected the sucrose solution as sweeter: 49
Panellists [1]; allulose 2.6950 weight % in water vs 1.5% by weight sucrose, 60 possible
  Count: number of panellists who selected the sucrose solution as sweeter: 40
Panellists [1]; allulose 2.8875 weight % in water vs 1.5% by weight sucrose, 44 possible
  Count: number of panellists who selected the allulose solution as sweeter: 26
Panellists [1]; allulose 3.0800 weight % in water vs 1.5% by weight sucrose, 60 possible
  Count: number of panellists who selected the allulose solution as sweeter: 34
Panellists [1]; relative to total weight of the solution, vs 1.5% by weight sucrose
  Amount of allulose in solution considered below its sweetness threshold: ≤ 2.695 % by weight
panelists
  Effect on cotton candy flavor (in words): enhanced the cotton candy flavor
  Effect on preference for the beverage (in words): increased the preference for the beverage
Panellists [2]
  Effect on preference for the beverage (in words): increased the preference for the beverage
  Effect on salted caramel flavor (in words): enhanced the salted caramel flavor

## OC[C@H]1O[C@@](CO)(O[C@H]2O[C@H](CO)[C@@H](O)[C@H](O)[C@H]2O)[C@@H](O)[C@@H]1O [sucrose]
[3]
  Recognition threshold concentration: 1.5 % by weight
